Entries after “also recorded” stand apart in the source; their conditions may differ.

The target of experiment [1] is T1, CB2 (Homo sapiens (Human), UniProt P34972). As to the kind of experiment: CB1/CB2 Functional Assay (GTPγ[35S]), CB2 membranes. In kind it is biochemical. Here is the method: A dose response curve was generated at eight concentrations in duplicate on CB1 and CB2 in light of reference agonists. The reference agonists for cannabinoid receptors was CP55,940. See FIGS. 1A, 1B, 2A, 2B, 3A and 3B.
Membranes (CB1, ES-110-MG or CB2, ES-111-MG) were mixed with GDP (volume:volume) and incubated for at least 15 min on ice. In parallel, GTPγ[^35S] were mixed with the beads (volume:volume) just before starting the reaction. The following reagents were successively added in the wells of an Optiplate: 50 μl of ligand, 20 μl of the membranes:GDP mix, 10 μl of assay buffer for agonist testing and 20 μl of the GTPγ[^35S]: beads mix. The plates were covered with a topseal, shaken on an orbital shaker for 2 min, and then incubated between 30 to 60 min. at room temperature. Then the plates were centrifuged for 10 min at 2000 rpm, incubated at room temperature between 1 to 4 hours and counted for 1 min with a PerkinElmer TopCount reader.

For the next experiment, the target named is rCB2 receptors (Rattus norvegicus (Rat), UniProt Q9QZN9). As to the kind of experiment: cAMP activation assay rCB2. It counts as cell-based. Particulars: read-out: Agonist EC50 (mean ± s.e. mean) cAMP activation assays rCB2. Here is the method: The compound of Example 3 was tested for agonist activity at the rat CB1 (rCB1) and rCB2 receptors, at eight concentrations, in duplicate: 10, 3, 1, 0.3, 0.1, 0.03, 0.01 and 0.001 μM. Recombinant cells grown to mid-log phase in culture media without antibiotics were detached with PBS containing 5 mM EDTA, centrifuged and resuspended in assay buffer at a concentration of 16.6×10^5 cells/ml. The test was performed in 96 well plates. For testing, 12 μl of cells ([…]) were mixed with 12 μl of agonist at increasing concentrations. […] The plates were then incubated for 30 min at room temperature. After addition of the lysis buffer, cAMP concentrations were estimated, according to the manufacturer specification, with the HTRF kit from Cis-Bio International (Catalogue number 62AM2PEB).

Experiment [2] addresses T1, CB2. As to the kind of experiment: CB2 Binding Assay ([3H]WIN 55212-2, cell membrane homogenates). The method, then:
Cell membrane homogenates (15 μg protein) were incubated for 120 min at 37° C. with 0.8 nM [3H]WIN 55212-2 (the reference standard [Munro, 1993 #1321]) in the absence or presence of the test compound in a buffer containing 50 mM HEPES/Tris HCL (pH 7.4), 5 mM MgCl2, 2.5 mM EGTA, and 0.1% BSA. Nonspecific binding was determined in the presence of 10 μM WIN 55212-2. After being incubated, the samples were filtered rapidly under vacuum through glass fiber filters (GF/B; Packard) presoaked with 0.3% PEI and rinsed several times with ice-cold buffer containing 50 mM Tris HCl (pH 7.4) and 0.5% BSA using a 96-sample cell harvester (Unifilter; Packard). The filters were dried then counted for radioactivity in a scintillation counter (Topcount; Packard) using a scintillation cocktail (Microscint 0; Packard). The results were expressed as a percentage of the inhibition of the control radioligand-specific binding. The reference standard compounds were tested in each experiment at several concentrations to obtain a competition curve from which its IC50 was calculated.

The subject of experiment [3] is spinal nerve ligation neuropathic pain model. The experiment is described as follows: Tactile allodynia in SNL neuropathic pain model (von Frey). In kind it is in vivo, rat. The method, then: Adult, male Sprague Dawley (Harlan Sprague Dawley, Indianapolis, Ind.) rats weighing 120-150 gm were used in experimental procedures approved by the Animal Care and Use Committee of the M. D. Anderson Cancer Center, University of Texas. Animals were housed three per cage on a 12/12 hr light/dark cycle with water and food pellets available ad libitum.
All surgical procedures were performed under deep isoflurane anesthesia in 100% 02. The spinal nerve ligation (SNL) was performed as described previously. Kim, S. H., et al., An Experimental Model for Peripheral Neuropathy Produced by Segmental Spinal Nerve Ligation in the Rat, Pain, 1992, 50:355-63. Briefly, a midline incision above the lumbar spine exposed the left L6 transverse process. The process was then removed, the left L5 and L6 spinal nerves were isolated, and both nerves were tightly ligated with 6-0 silk. Prophylactic antibiotic (norfloxacin 5 mg/kg subcutaneously) and analgesic (buprenorphine, 0.2-0.5 mg/kg, or morphine, 2.5 mg/kg, given subcutaneously) were administered once daily for 3 days. All the experiments were conducted 10-14 days after spinal nerve ligation.
Rats were placed in a compartment with a wire mesh bottom and allowed to acclimate for a minimum of 30 min before testing. Mechanical sensitivity was assessed using a series of Von Frey filaments with logarithmic incremental stiffness (0.41, 0.70, 1.20, 2.00, 3.63, 5.50, 8.50, and 15.1 g) (Stoelting, Wood Dale, Ill.) as previously described, and 50% probability withdrawal thresholds were calculated with the up-down method. Chaplan, S. R., et al., Quantitative Assessment of Tactile Allodynia in the Rat Paw, J. Neurosci. Methods, 1994, 53:55-63; Dixon, W., The Up-and-Down Method for Small Samples, J. Am. Stat. Assoc., 1965, 60:967-78. In brief, beginning with the 2.0-g probe, filaments were applied to the plantar surface of a hind paw for 6-8 s, in an ascending or descending order after a negative or positive withdrawal response, respectively. Six consecutive responses from the first change in the response were used to calculate the withdrawal threshold (in grams). In cases where response thresholds fell outside the range of detection, 15.00 and 0.25 g were, respectively, assigned for continuous negative or positive responses to the limit of stimuli. The percent maximal possible effect (% MPE) was calculated as ([postdrug threshold−baseline threshold]/[cutoff threshold (15 g)−baseline threshold])×100.
Statistical analyses were carried out using BMDP 2007 (Statistical Solutions, Saugus, Mass., USA) and Graph Pad Prism (version 4.03; Graph Pad Software Inc., San Diego, Calif., USA). Data were analyzed using one-way ANOVA, repeated measures ANOVA, or t-test where appropriate. If ANOVA was significant, Tukey-Kramer post hoc analysis was used for multiple group comparison. Area under the curve (AUC) was calculated using the trapezoidal rule. The results are presented as mean±s.e. mean and were considered significant at P<0.05. Analyses of the dose-response curves and statistics were obtained using the pharmacologic software programs of Tallarida and Murray and included calculation of the ED50 values and their 95% confidence intervals (CI). Tallarida, R. J., et al., Manual of Pharmacologic Calculations With Computer Programs, Second ed. New York: Springer-Verlag, 1987.

Setting [4] is: CB2, test concentration 1.0E−05 (MD).

T1 sequence (P34972 whole entry): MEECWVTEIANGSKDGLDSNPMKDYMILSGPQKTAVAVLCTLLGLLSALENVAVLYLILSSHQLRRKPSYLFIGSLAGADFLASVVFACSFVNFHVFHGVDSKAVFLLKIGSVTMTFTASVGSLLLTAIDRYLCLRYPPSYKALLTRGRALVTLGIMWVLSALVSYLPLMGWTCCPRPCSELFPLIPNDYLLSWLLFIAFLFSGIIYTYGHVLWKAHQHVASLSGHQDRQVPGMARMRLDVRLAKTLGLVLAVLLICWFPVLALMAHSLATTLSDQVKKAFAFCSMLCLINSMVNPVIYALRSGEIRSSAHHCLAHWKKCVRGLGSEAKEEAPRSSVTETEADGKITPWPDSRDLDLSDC

With `CC1(Cc2ccccc2)COc2cc(C(=O)N3CCCCC3)ccc21` (stereo not drawn) [Example 3, 3-benzyl-3-methyl-2,3-dihydrobenzofuran-6-carboxylic acid-piperidine amide], the “Compound Function” value on CB2 [1] is reported as “Agonist”. In addition, the values for the EC50 on CB2 [1] (read-out: EC50 (nM) for GTP Binding) and on rCB2 receptors were 160 nM and 21.7 ± 7.9 nM, respectively. The “% Activation Average” value at CB2 [1] (reference agonist CP55,940) amounted to 87.2%. Also, the “% Inhibition of Control Specific Binding” value at CB2 [2] (setting [4]) was 91%. Moreover, the “% of Control Specific Binding Mean” value at CB2 [2] (setting [4]) is 9.4%. Also, at CB2 [2] (CB2, test concentration 1.0E−05 (MD), first replicate), the “% of Control Specific Binding 1st” value was found to be 13%. Also, the “% of Control Specific Binding 2nd” value at CB2 [2] (CB2, test concentration 1.0E−05 (MD), second replicate) was found to be 5.8%. For the same compound, the “% Inhibition of Control Specific Binding CB2” value at CB2 [2] (as repeated in Table 4) worked out at 91%. The “antiallodynic effect compared with 15 mg/kg AM1241 i.p.” value in experiment [3] (10 mg/kg i.p.) was “significantly (P<0.001) greater”. The ED50 in experiment [3] (Rattus norvegicus, ip, 0.5 h, i.p., at 30 min, SNL model, read-out: ED50 anti-allodynic effect (tactile allodynia)) amounted to 7.48 mg/kg. For the same compound, in experiment [3] (compound 10 mg/kg i.p., AM251 15 min prior), the “effect of AM251 pretreatment (5 mg/kg i.p.) on antiallodynic effects of the compound” value is listed as “did not affect the antiallodynic effects; also recorded: had no effect”. For the same compound, the “effect of AM630 pretreatment (5 mg/kg i.p.) on antiallodynic effects of the compound” value in experiment [3] (compound 10 mg/kg i.p., AM630 15 min prior) is recorded as “antagonized the effects; also recorded: reversed the antiallodynic effects; also recorded: significantly reversed”. In addition, in experiment [3] (compound of Example 3 10 mg/kg i.p., naloxone 15 min prior), the “effect of naloxone pretreatment (10 mg/kg i.p.) on antiallodynic activity” value is on record as “did not affect the antiallodynic effects; also recorded: had no effect”. Besides, the “effect on tactile allodynia” value in experiment [3] (i.p. 5, 10, 15 mg/kg) is on record as “attenuated tactile allodynia in a dose-related manner”.

The record behind these values is US9339486B2, “Heterocyclic modulators of cannabinoid receptors” (THE CLEVELAND CLINIC FOUNDATION, priority 2008, dated 2016).
